The values below are quoted from earlier work in patent US20130137766A1, “Compound Used to Prevent Diseases Caused by Aquaporin Deficiency” (FU-JEN CATHOLIC UNIVERSITY, priority 2010, published 2013).

The data set concerns AQP-3. The following applies: EGF-treated groups.

In the case of “EGF: epidermal growth factor, literature comparator (Cong Cao et al.) (NSDSECPLSHDGYCLHDGVCMYIEALDKYACNCVVGYIGERCQYRDLKWWELR; UniProt P01133 971-1023, looked up)”, the “expression of AQP-3” value is “significantly increased” and the wound healing result is recorded as “wound healing was facilitated”.
